Counter-ions that a name gives are not always drawn.
Assays:
[1] = test system: human and animal plasma; test: Determination of anticoagulatory activity: activated partial thromboplastin time (aPTT) in plasma; details: concentration of test substance which brings about a 1.5-fold extension of the aPTT; plasma species not given
In short: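 Citrated plasma (1:9, 0.11 M citrate; 4000 g, 15 min) from human or animal blood incubated with test compound and cephalin/kaolin PTT reagent for 3 min at 37° C.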

[2] = target: T1, human factor XIa (Homo sapiens, UniProt P03951); test: Measurement of FXIa inhibition (fluorogenic peptide substrate Boc-Glu(OBzl)-Ala-Arg-AMC); assay type: biochemical; details: factor XIa from Kordia, 15 min preincubation, 30 min at 22° C., fluorescence
T1 construct: purchased Kordia
In short: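 Released AMC fluorescence (360/460 nm) read after 30 min at 22 °C. The reaction was started with Boc-Glu(OBzl)-Ala-Arg-AMC (10 μM stock) after a 15 min preincubation of the enzyme (0.45 nM stock) with compound (final 50 μM to 0.00013 μM).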

T1 sequence (P03951 388-625 limits assumed): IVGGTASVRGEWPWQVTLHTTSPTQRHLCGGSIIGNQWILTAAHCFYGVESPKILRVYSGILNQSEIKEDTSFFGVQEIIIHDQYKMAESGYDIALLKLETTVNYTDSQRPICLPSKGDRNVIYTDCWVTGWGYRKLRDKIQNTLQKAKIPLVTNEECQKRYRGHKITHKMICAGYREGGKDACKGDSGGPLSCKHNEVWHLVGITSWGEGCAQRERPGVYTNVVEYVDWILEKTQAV
T1 sequence (P03951 19-387 partner limits assumed): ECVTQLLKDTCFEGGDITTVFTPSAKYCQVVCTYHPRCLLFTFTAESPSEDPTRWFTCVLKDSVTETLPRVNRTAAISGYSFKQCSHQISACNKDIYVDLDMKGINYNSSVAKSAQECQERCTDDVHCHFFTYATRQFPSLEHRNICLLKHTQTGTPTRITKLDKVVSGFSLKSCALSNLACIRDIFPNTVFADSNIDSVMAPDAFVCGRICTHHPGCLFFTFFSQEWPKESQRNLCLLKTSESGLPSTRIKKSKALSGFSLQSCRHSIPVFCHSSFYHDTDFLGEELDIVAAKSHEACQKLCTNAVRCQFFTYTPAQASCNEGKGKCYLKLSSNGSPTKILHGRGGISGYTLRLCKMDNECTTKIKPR

Row | Structure (SMILES) | aPTT [1] [µmol/L] | IC50 [2] [nM]
1 | Cc1cc(C(=O)NC2CCNCC2)ccc1-c1ccc(C[C@H](NC(=O)[C@H]2CC[C@H](CN)CC2)C(=O)Nc2ccc3nc(-c4cccnc4)[nH]c3c2)cc1 [Example 59, 4′-[(2S)-2-({[trans-4-(Aminomethyl)cyclohexyl]carbonyl}amino)-3-oxo-3-{[2-(pyridin-3-yl)-1H-benzimidazol-6-yl]amino}propyl]-2-methyl-N-(piperidin-4-yl)biphenyl-4-carboxamide hydrochloride] | 0.51 | 34
2 | Cc1cc(C(=O)NCCN)ccc1-c1ccc(C[C@H](NC(=O)[C@H]2CC[C@H](CN)CC2)C(=O)Nc2ccc3cn[nH]c3c2)cc1 [Example 3, N-(2-Aminoethyl)-4′-[(2S)-2-({[trans-4-(aminomethyl)cyclohexyl]carbonyl}amino)-3-(1H-indazol-6-ylamino)-3-oxopropyl]-2-methylbiphenyl-4-carboxamide hydrochloride] | 0.2 | 11
3 | Cc1cc(C(=O)NC2CCNCC2(C)C)ccc1-c1ccc(C[C@H](NC(=O)[C@H]2CC[C@H](CN)CC2)C(=O)Nc2ccc(-c3nnc(C(F)(F)C(F)(F)C(=O)O)[nH]3)cc2)cc1 (stereo partly drawn) [Example 107, 3-[5-(4-{[(2S)-2-({[trans-4-(Aminomethyl)cyclohexyl]carbonyl}amino)-3-{4′-[(3,3-dimethylpiperidin-4-yl)carbamoyl]-2′-methylbiphenyl-4-yl}propanoyl]amino}phenyl)-4H-1,2,4-triazol-3-yl]-2,2,3,3-tetrafluoropropanoic acid hydrochloride] | 0.1 | 1.4
4 | Cc1cc(C(=O)NC2CCNCC2(C)C)ccc1-c1ccc(C[C@H](NC(=O)[C@H]2CC[C@H](CN)CC2)C(=O)Nc2ccc(-c3nnn[nH]3)cc2)cc1 (stereo partly drawn) [Example 149, 4′-[(2S)-2-({[trans-4-(Aminomethyl)cyclohexyl]carbonyl}amino)-3-oxo-3-{[4-(1H-tetrazol-5-yl)phenyl]amino}propyl]-N-(3,3-dimethylpiperidin-4-yl)-2-methylbiphenyl-4-carboxamide hydrochloride] | 0.04 | 1.8
5 | CCN(CC)CCNC(=O)c1ccc(-c2ccc(C[C@H](NC(=O)[C@H]3CC[C@H](CN)CC3)C(=O)Nc3ccc(-c4nn[nH]n4)cc3)cc2)c(Cl)c1 [Example 10, 4′-[(2S)-2-({[trans-4-(Aminomethyl)cyclohexyl]carbonyl}amino)-3-oxo-3-{[4-(2H-tetrazol-5-yl)phenyl]amino}propyl]-2-chloro-N-[2-(diethylamino)ethyl]biphenyl-4-carboxamide hydrochloride] | 0.13 | 4.4
6 | Cc1cc(C(=O)NC2CCCNC2=O)ccc1-c1ccc(C[C@H](NC(=O)[C@H]2CC[C@H](CN)CC2)C(=O)Nc2ccc(-c3nnc(C(F)(F)C(F)(F)C(=O)O)[nH]3)cc2)cc1 (stereo partly drawn) [Example 155, 3-[5-(4-{[(2S)-2-({[trans-4-(Aminomethyl)cyclohexyl]carbonyl}amino)-3-{2′-methyl-4′-[(2-oxopiperidin-3-yl)carbamoyl]biphenyl-4-yl}propanoyl]amino}phenyl)-4H-1,2,4-triazol-3-yl]-2,2,3,3-tetrafluoropropanoic acid hydrochloride] | 0.16 | 1
7 | Cc1cc(C(=O)NCCCN(C)C)ccc1-c1ccc(C[C@H](NC(=O)[C@H]2CC[C@H](CN)CC2)C(=O)Nc2ccc(-c3nn[nH]n3)cc2)cc1 [Example 35, 4′-[(2S)-2-({[trans-4-(Aminomethyl)cyclohexyl]carbonyl}amino)-3-oxo-3-{[4-(2H-tetrazol-5-yl)phenyl]amino}propyl]-N-[3-(dimethylamino)propyl]-2-methylbiphenyl-4-carboxamide hydrochloride] | 0.11 | 2.3
8 | CC1CC(NC(=O)c2ccc(-c3ccc(C[C@H](NC(=O)[C@H]4CC[C@H](CN)CC4)C(=O)Nc4ccc(-c5nn[nH]n5)cc4)cc3)c(Cl)c2)CCN1 (stereo partly drawn) [Example 30, 4′-[(2S)-2-({[trans-4-(Aminomethyl)cyclohexyl]carbonyl}amino)-3-oxo-3-{[4-(2H-tetrazol-5-yl)phenyl]amino}propyl]-2-chloro-N-(2-methylpiperidin-4-yl)biphenyl-4-carboxamide hydrochloride] | 0.12 | 3.2
9 | Cc1cc(C(=O)NC2CCN(C)CC2)ccc1-c1ccc(C[C@H](NC(=O)[C@H]2CC[C@H](CN)CC2)C(=O)Nc2ccc(-c3nc(C(F)(F)C(F)(F)CO)n[nH]3)cc2)cc1 [Example 109, 4′-[(2S)-2-({[trans-4-(Aminomethyl)cyclohexyl]carbonyl}amino)-3-oxo-3-({4-[3-(1,1,2,2-tetrafluoro-3-hydroxypropyl)-1H-1,2,4-triazol-5-yl]phenyl}amino)propyl]-2-methyl-N-(1-methylpiperidin-4-yl)biphenyl-4-carboxamide hydrochloride] | 0.11 | 3
10 | COCc1nnc(-c2ccc(NC(=O)[C@H](Cc3ccc(-c4ccc(C(=O)NC5CCNCC5)cc4C)cc3)NC(=O)[C@H]3CC[C@H](CN)CC3)cc2)[nH]1 [Example 54, 4′-[(2S)-2-({[trans-4-(Aminomethyl)cyclohexyl]carbonyl}amino)-3-({4-[3-(methoxymethyl)-4H-1,2,4-triazol-5-yl]phenyl}amino)-3-oxopropyl]-2-methyl-N-(piperidin-4-yl)biphenyl-4-carboxamide hydrochloride] | 0.24 | 16
11 | Cc1cc(-c2ccc(C[C@H](NC(=O)[C@H]3CC[C@H](CN)CC3)C(=O)Nc3ccc(-c4nnn[nH]4)cc3)cc2)ccc1C(=O)NC1CC1 [Example 95, 4′-[(2S)-2-({[trans-4-(Aminomethyl)cyclohexyl]carbonyl}amino)-3-oxo-3-{[4-(1H-tetrazol-5-yl)phenyl]amino}propyl]-N-cyclopropyl-3-methylbiphenyl-4-carboxamide hydrochloride] | 0.33 | 2.4
12 | Cc1cc(C(=O)NCCO)ccc1-c1ccc(C[C@H](NC(=O)[C@H]2CC[C@H](CN)CC2)C(=O)Nc2ccc(-c3nn[nH]n3)cc2)cc1 [Example 18, 4′-[(2S)-2-({[trans-4-(Aminomethyl)cyclohexyl]carbonyl}amino)-3-oxo-3-{[4-(2H-tetrazol-5-yl)phenyl]amino}propyl]-N-(2-hydroxyethyl)-2-methylbiphenyl-4-carboxamide hydrochloride] | 0.16 | 3.7
13 | NC[C@H]1CC[C@H](C(=O)N[C@@H](Cc2ccc(-c3ccc(C(=O)NC4CCNCC4)c(F)c3)cc2)C(=O)Nc2ccc(-c3nn[nH]n3)cc2)CC1 [Example 45, 4′-[(2S)-2-({[trans-4-(Aminomethyl)cyclohexyl]carbonyl}amino)-3-oxo-3-{[4-(2H-tetrazol-5-yl)phenyl]amino}propyl]-3-fluoro-N-(piperidin-4-yl)biphenyl-4-carboxamide hydrochloride] | 0.14 | 6.2

From patent US20160272617A1, “SUBSTITUTED PHENYLALANINE DERIVATIVES” (BAYER PHARMA AKTIENGESELLSCHAFT, priority 2013, published 2016)
